Test in all cases: DTP human tumour cell line panel, 48 h
Assay [1] deals with A549 NSCLC.
Assay [2] deals with HCC-2998 colon.
In assay [3] the test system is MCF7 breast.
The subject of assay [4] is MDA-MB-231 breast.
The subject of assay [5] is NCI-H226 lung.
Assay [6] has as its system NCI-H460 lung.
The subject of assay [7] is OVCAR-5 ovarian.
Assay [8] deals with RPMI-8226 leukemia.
The test system of assay [9] is SF-268 CNS.
Assay [10] relates to UACC-257 melanoma.

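Five concentrations, 48 hours, 96-well plates. GI50 is the concentration that inhibits growth by half. The concentration for full growth arrest is given as TGI.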

As usually defined, the GI50 is the concentration at which growth is held to half of that of the control. A word on the TGI: it is the concentration giving total growth inhibition. Read a high TGI as less potent growth arrest. On to `O=C(CNc1ccc2c(c1)C(=O)c1ccccc1C2=O)Nc1ccc2c(c1)C(=O)c1ccccc1C2=O`, for which the GI50 in [1] was 1.68 µM; in assay [2], 1.58 µM; in assay [3], 0.809 µM; in [4] it was 1.31 µM; in assay [5] it was 0.568 µM; in assay [6] it was 1.28 µM. For the same compound, the GI50 is 1.84 µM in assay [7], 0.957 µM in assay [8], 0.575 µM in [9] and 1.49 µM in assay [10]. Further, the TGI in [1] is 3.58 µM; in [2] it was 2.99 µM; in assay [3] it was 2.6 µM; in [4], 4.71 µM; in assay [5], 1.44 µM; in assay [6], 2.88 µM. In addition, the TGI came out at 3.4 µM in assay [7], 3.46 µM in [8], 1.71 µM in [9] and 2.99 µM in assay [10].
Consider `N#Cc1nc2c(S(=O)(=O)c3ccccc3)c(N)n(Cc3cccnc3)c2nc1C#N`, for which the GI50 in assay [1] was > 100 µM; in assay [2], > 100 µM; in [3], 13.1 µM; in [4] it was 11.8 µM; in assay [5], 28.9 µM; in assay [6] it was > 100 µM. For the same compound, the GI50 in assay [7] is > 100 µM; in assay [8], > 100 µM; in [9], 4.26 µM; in [10], > 100 µM. For the same compound, the TGI was > 100 µM in [1]; > 100 µM in assay [2]; > 100 µM in assay [3]; 52.2 µM in [4]; > 100 µM in assay [5]; > 100 µM in assay [6]. For the same compound, the TGI in assay [7] was > 100 µM; in assay [8] it was > 100 µM; in assay [9], 22.7 µM; in assay [10] it was > 100 µM.
For `Cn1c(/C=C(\C#N)c2ccccc2)nc2c(N3CCOCC3)nc(Cl)nc21`, the GI50 is 1.53 µM in assay [1]; 1.82 µM in [2]; 0.48 µM in [3]; 1.31 µM in assay [4]; 1.52 µM in assay [5]; 1.77 µM in [6]. For the same compound, the GI50 is 1.42 µM in [7], 0.254 µM in [8], 1.55 µM in assay [9] and 1.43 µM in [10]. Besides, the TGI in [1] worked out at 4.03 µM; in assay [2] it was 3.33 µM; in assay [3], 2.15 µM; in assay [4] it was 2.92 µM; in assay [5], 3.4 µM; in assay [6] it was 3.72 µM. The TGI was 2.99 µM in [7], 0.804 µM in assay [8], 3.15 µM in [9] and 3.03 µM in assay [10].
Regarding `O=C1c2cc3c(cc2-c2c1c1ccc(Cl)cc1c(=O)n2CCCNCCO)OCO3`, the GI50 in [1] was 0.115 µM; in assay [2], 1.15 µM; in assay [3] it was 0.0176 µM; in assay [4] it was 1.73 µM; in assay [5], 0.052 µM; in assay [6] it was 0.0342 µM. Also, the GI50 is 1.71 µM in assay [7], 0.145 µM in assay [8], 0.0668 µM in [9] and 0.666 µM in assay [10]. Also, the TGI was found to be 2.38 µM in [1]; 2.46 µM in assay [2]; 0.179 µM in [3]; 3.49 µM in [4]; 1.55 µM in assay [5]; 1.34 µM in assay [6]. The TGI in assay [7] came out at 3.71 µM; in assay [8] it was 3.27 µM; in assay [9], 2.13 µM; in assay [10], 2.43 µM.
In the case of `COC1CC2CCC(C)C(O)(O2)C(=O)C(=O)N2CCCCC2C(=O)OC(C(C)CC2CCC(O)C(OC)C2)CC(=O)C(C)C=C(C)C(O)C(OC)C(=O)C(C)CC(C)/C=C/C=C/C=C1C` (stereo not given), the GI50 was 0.0784 µM in assay [1]; 0.263 µM in [2]; < 0.005 µM in [3]; 4.32 µM in assay [4]; < 0.005 µM in assay [5]; < 0.005 µM in [6]. The GI50 in [7] was 6.41 µM; in assay [8], 0.0903 µM; in assay [9], 3.82 µM; in [10] it was 4.46 µM. Besides, the TGI turned out to be 41.6 µM in assay [1]; 11.4 µM in assay [2]; 14.6 µM in assay [3]; 12.9 µM in assay [4]; 9.71 µM in assay [5]; 11.5 µM in [6]. The TGI came to 14.3 µM in assay [7], 19.3 µM in assay [8], 11.5 µM in [9] and 12.5 µM in assay [10].
In the case of `Ic1ccccc1-c1ccccc1`, the GI50 in assay [1], in assay [2], in assay [3], in assay [4], in assay [5] and in assay [6] was > 100 µM each time. Also, the GI50 in [7] was > 100 µM; in [8] it was 62.7 µM; in assay [9] it was > 100 µM; in assay [10], > 100 µM. The TGI in [1], in assay [2], in assay [3], in assay [4], in assay [5] and in assay [6] was > 100 µM in each case. Further, the TGI in assay [7], in assay [8], in assay [9] and in [10] was > 100 µM throughout.

The values are drawn from PubChem BioAssay (NCI).
